Measured values reported in patent US20140031296A1, “NEW SYNTHETIC PEPTIDES AND THEIR USE” (PERGAMUM AB, priority 2011, published 2014).

How the values were obtained:
[1] = tested on: S. aureus (CCUG 1800); assay: Minimal microbicidal concentration (MMC99) assay, S. aureus; assay type: cell-based; details: 2 hours; for MMC99 μM in 50% SWF: 50% heat inactivated simulated wound fluid
Experimental: Antimicrobial Activity was Measured as Bactericidal Effect on S. aureus Using Minimal Microbicidal Concentration, MMC99, Assay)
S. aureus (#1800; CCUG, Gothenburg, Sweden) cultured on blood-agar plates [Columbia agar (Oxoid, Basingstoke, UK) supplemented with 5% defibrinated horse blood (National Veterinary Institute (SVA), Uppsala, Sweden)] were transferred to brain heart infusion broth (3.7% BHI; Difco, BD Diagnostics, Franklin Lakes, N.J., USA) and incubated in a shaker at 250 rpm+37° C. over night. The culture was thereafter be diluted 1:10 in fresh BHI broth and incubated for additional two hours to reach log-phase growth. The bacteria were pelleted and suspended in 1% BHI medium (BHI broth diluted 100 times in ultra-pure water) to a concentration of 10^7 bacteria/ml as estimated by measuring optical density at 600 nm. Peptides were serially diluted by two-fold steps from 160 μM to 1.25 μM in 1% BHI medium. The peptides (100 μl) were thereafter incubated with bacteria (5 μl á 10^7 bact./ml) for 2 hours at +37° C. Drops (5 μl) of the suspension were placed on blood agar plates. The blood agar plates were incubated over night at +37° C. The MMC99 values, i.e. the lowest peptide concentration needed to achieve a 99% reduction of viable bacteria, were recorded (Table 3). The concentration of the bacterial suspension used in the assay was confirmed by viable counts on blood agar plates.
S. aureus (#1800; CCUG, Gothenburg, Sweden) cultured on blood-agar plates [Columbia agar (Oxoid, Basingstoke, UK) supplemented with 5% defibrinated horse blood (National Veterinary Institute (SVA), Uppsala, Sweden)] were transferred to brain heart infusion broth (3.7% BHI; Difco, BD Diagnostics, Franklin Lakes, N.J., USA) and incubated in a shaker at 250 rpm+37° C. over night. The culture was thereafter be diluted 1:10 in fresh BHI broth and incubated for additional two hours to reach log-phase growth. The bacteria were pelleted and suspended in 1% BHI medium (BHI broth diluted 100 times in ultra-pure water) to a final concentration of 10^7 bacteria/ml as estimated by measuring optical density at 600 nm.
Peptides were serially diluted by two-fold steps from 400 μM to 0.78 μM in either 1% BHI medium or in 50% heat inactivated simulated wound fluid [SWF, containing 1 part 0.1% peptone (Oxoid, Basingstoke, UK) in saline and 1 part fetal bovine serum, diluted 2 times in ultra-pure water].
The peptides (100 μl) were thereafter incubated with bacteria (5 μl a 10^7 bact./ml) for 2 hours at +37° C. Drops (5 μl) of the suspension were placed on blood agar plates. The blood agar plates were incubated over night at +37° C. The MMC99 values, i.e. the lowest peptide concentration needed to achieve a 99% reduction of viable bacteria were recorded (Table 6). The concentration of the bacterial suspension used in the assay was confirmed by viable counts on blood agar plates.
The antimicrobial effects of the peptides 232 (SEQ ID NO: 78), and 220 (SEQ ID NO:67) were analysed by MMC99 (minimal microbicidal concentration) assay against S. aureus (CCUG 1800), MRSA (CCUG 41879), P. aeruginosa (ATCC 15442), E. coli (CCUG 31246), S. pyogenes (CCUG 4207), P. acnes (CCUG 1794T), S. epidermidis (ATCC12228), K. pneumoniae (ATCC 13883), A. baumannii (ATCC 19606), and C. albicans (ATCC 64549). The peptides were purchased from Biopeptide Company (San Diego, Calif., USA) and Bachem AG (Bubendorf, Switzerland) and results are presented in Table 8A and 8B respectively.
Peptides were serially diluted in two different assay medium, 1% BHI medium (brain-heart infusion medium) or 50% heat inactivated simulated wound fluid (SWF), and thereafter incubated with the microorganisms for 2 hours. Drops of the suspension were placed on blood agar plates. The MMC99 values, i.e. the lowest peptide concentration needed to achieve a 99% reduction of viable microorganisms, were recorded. As presented in Table 8, all the peptides have the ability to kill microorganisms frequently appearing in infections. […]

[2] = tested on: TNF-α production in LPS stimulated THP-1 cells; assay: Inhibition of TNF-α production in LPS stimulated THP-1 cells (ELISA); assay type: cell-based, human; details: mean relative secretion, basal = 0%; for TNF-α at 4 μM peptide / TNF-α at 10 μM peptide: stimulated = 100%; for TNF-α at 40 μM peptide: LPS-stimulated level without peptide = 100%
Experimental: After 6 hours of incubation at +37° C., 5% CO2 and in a humid atmosphere, the cell supernatants were collected, centrifuged and kept frozen in −20° C. until analyzed for TNF-α content by ELISA (R&D Systems, Minneapolis, Minn., USA). The results are presented as mean relative secretion (%), with stimulated TNF-α level without peptide added set to 100% and basal secretion set to 0% (Table 2).
After 6 hours of incubation, the cell supernatants were collected, centrifuged, and kept frozen in −20° C. until analyzed for TNF-α content by ELISA (R&D Systems, Minneapolis, Minn., USA). The results are presented as mean relative secretion (%), with stimulated TNF-α level without peptide added set to 100% and basal secretion set to 0% (Table 5).

[3] = screen 1, 99% reduction of viable bacteria

Sequence: LRLWRRLMRKVW [Peptide 231]
- MMC99 μM in 1% BHI medium ([1]; screen 2): 12.5 µM
- MMC99 μM in 50% SWF ([1]; screen 2): 50 µM
- TNF-α at 4 μM peptide ([2]; screen 2): 102.6%
- TNF-α at 10 μM peptide ([2]; screen 2): 89.1%
- TNF-α at 40 μM peptide ([2]; screen 2): 49.8%

Sequence: NEADKCFQWQRNMRKVR [Peptide 109]
- MMC99 μM in 1% BHI medium [1, 3]: 160 µM
- TNF-α at 40 μM peptide ([2]; screen 1): 47%

Sequence: NQPTATKCFQWQRNMRKVR [Peptide 102]
- MMC99 μM in 1% BHI medium [1, 3]: >160 µM
- TNF-α at 40 μM peptide ([2]; screen 1): 108%

Sequence: NSLFEKLAQWLRQLRKVR [Peptide 222]
- MMC99 μM in 1% BHI medium ([1]; screen 2): 12.5 µM
- MMC99 μM in 50% SWF ([1]; screen 2): 100 µM
- TNF-α at 4 μM peptide ([2]; screen 2): 89.2%
- TNF-α at 10 μM peptide ([2]; screen 2): 65.9%
- TNF-α at 40 μM peptide ([2]; screen 2): 32.9%

Sequence: PEATKCFQWQRNMRKVR [Peptide 108]
- MMC99 μM in 1% BHI medium [1, 3]: >160 µM
- TNF-α at 40 μM peptide ([2]; screen 1): 127%

Sequence: QKRATKRFQWLRNLRKVL [Peptide 205]
- MMC99 μM in 1% BHI medium ([1]; screen 2): 12.5 µM
- MMC99 μM in 50% SWF ([1]; screen 2): 50 µM
- TNF-α at 4 μM peptide ([2]; screen 2): 91.5%
- TNF-α at 10 μM peptide ([2]; screen 2): 89.5%
- TNF-α at 40 μM peptide ([2]; screen 2): 28.3%

Sequence: QPEATKCFPWQRNMRKVR [Peptide 118]
- MMC99 μM in 1% BHI medium [1, 3]: >160 µM
- TNF-α at 40 μM peptide ([2]; screen 1): 113%

Sequence: QPEATKCFQWQRNMRKVR [Peptide 104]
- MMC99 μM in 1% BHI medium [1, 3]: >160 µM
- TNF-α at 40 μM peptide ([2]; screen 1): 132%

Sequence: QSEAEKCFQWQRNMRKVR [Peptide 107]
- MMC99 μM in 1% BHI medium [1, 3]: >160 µM
- TNF-α at 40 μM peptide ([2]; screen 1): 108%

Sequence: QSEATKCFQWLRNMRKVR [Peptide 113]
- MMC99 μM in 1% BHI medium [1, 3]: >160 µM
- TNF-α at 40 μM peptide ([2]; screen 1): 22%

Sequence: QSEATKLFQWQRNLRKVR [Peptide 115]
- MMC99 μM in 1% BHI medium [1, 3]: >160 µM
- TNF-α at 40 μM peptide ([2]; screen 1): 119%

Sequence: QSEATKLFQWQRNMRKVR [Peptide 112]
- MMC99 μM in 1% BHI medium [1, 3]: >160 µM
- TNF-α at 40 μM peptide ([2]; screen 1): 101%

Sequence: QSEATKRFQWLRNLRKVL [Peptide 119]
- MMC99 μM in 1% BHI medium [1, 3]: 20 µM
- TNF-α at 40 μM peptide ([2]; screen 1): 10%

Sequence: QSEATKRFQWLRNLRKVLGP [Peptide 213]
- MMC99 μM in 1% BHI medium ([1]; screen 2): 25 µM
- MMC99 μM in 50% SWF ([1]; screen 2): 200 µM
- TNF-α at 4 μM peptide ([2]; screen 2): 110.3%
- TNF-α at 10 μM peptide ([2]; screen 2): 125.5%
- TNF-α at 40 μM peptide ([2]; screen 2): 84.4%

Sequence: QSEATKRFQWLRNLRKVLKR [Peptide 211]
- MMC99 μM in 1% BHI medium ([1]; screen 2): 6.25 µM
- MMC99 μM in 50% SWF ([1]; screen 2): 100 µM
- TNF-α at 4 μM peptide ([2]; screen 2): 100.7%
- TNF-α at 10 μM peptide ([2]; screen 2): 89.8%
- TNF-α at 40 μM peptide ([2]; screen 2): 62.8%

Sequence: QSEATKRFQWLRNLRKVLWW [Peptide 212]
- MMC99 μM in 1% BHI medium ([1]; screen 2): 12.5 µM
- MMC99 μM in 50% SWF ([1]; screen 2): 100 µM
- TNF-α at 4 μM peptide ([2]; screen 2): 90.9%
- TNF-α at 10 μM peptide ([2]; screen 2): 85.8%
- TNF-α at 40 μM peptide ([2]; screen 2): 25.7%

Sequence: QSERKKRFQWLRNLRKVL [Peptide 206]
- MMC99 μM in 1% BHI medium ([1]; screen 2): 12.5 µM
- MMC99 μM in 50% SWF ([1]; screen 2): 100 µM
- TNF-α at 4 μM peptide ([2]; screen 2): 96.9%
- TNF-α at 10 μM peptide ([2]; screen 2): 92.9%
- TNF-α at 40 μM peptide ([2]; screen 2): 51.0%

Sequence: QSLAEKLFQWLRNLRKVR [Peptide 117]
- MMC99 μM in 1% BHI medium [1, 3]: 2.5 µM
- TNF-α at 40 μM peptide ([2]; screen 1): 13%

Sequence: QSLAEKLFQWLRNRRKVR [Peptide 120]
- MMC99 μM in 1% BHI medium [1, 3]: 10 µM
- TNF-α at 40 μM peptide ([2]; screen 1): 49%

Sequence: QSLAHSLFQWLRNLRKVR [Peptide 218]
- MMC99 μM in 1% BHI medium ([1]; screen 2): 6.25 µM
- MMC99 μM in 50% SWF ([1]; screen 2): 50 µM
- TNF-α at 4 μM peptide ([2]; screen 2): 81.8%
- TNF-α at 10 μM peptide ([2]; screen 2): 55.7%
- TNF-α at 40 μM peptide ([2]; screen 2): 9.2%

Sequence: QSLARTFKQWARNLRKVL [Peptide 209]
- MMC99 μM in 1% BHI medium ([1]; screen 2): 12.5 µM
- MMC99 μM in 50% SWF ([1]; screen 2): 100 µM
- TNF-α at 4 μM peptide ([2]; screen 2): 88.0%
- TNF-α at 10 μM peptide ([2]; screen 2): 68.2%
- TNF-α at 40 μM peptide ([2]; screen 2): 23.6%

Sequence: QSLATKCFQWQRNMRKVR [Peptide 111]
- MMC99 μM in 1% BHI medium [1, 3]: 20 µM
- TNF-α at 40 μM peptide ([2]; screen 1): 121%

Sequence: QSLATKLFQWLRNLRKVR [Peptide 114]
- MMC99 μM in 1% BHI medium [1, 3]: 2.5 µM
- TNF-α at 40 μM peptide ([2]; screen 1): 15%

Sequence: QSLATKLFQWRRNLRKVR [Peptide 121]
- MMC99 μM in 1% BHI medium [1, 3]: 10 µM
- TNF-α at 40 μM peptide ([2]; screen 1): 35%

Sequence: QTEADKCFQWQRNMRKVR [Peptide 105]
- MMC99 μM in 1% BHI medium [1, 3]: >160 µM
- TNF-α at 40 μM peptide ([2]; screen 1): 87%

Sequence: QTEADKCFQWQRNMRKVR [Peptide 106] (QNEADKCFQWQRNMRKVR)
- MMC99 μM in 1% BHI medium [1, 3]: 160 µM
- TNF-α at 40 μM peptide ([2]; screen 1): 96%

Sequence: RLWRRLMRKVR [Peptide 238]
- MMC99 μM in 1% BHI medium ([1]; screen 2): 12.5 µM
- MMC99 μM in 50% SWF ([1]; screen 2): 100 µM
- TNF-α at 4 μM peptide ([2]; screen 2): 83.9%
- TNF-α at 10 μM peptide ([2]; screen 2): 89.2%
- TNF-α at 40 μM peptide ([2]; screen 2): 76.5%

Sequence: RSLAQKLFQWLRNLRKVR [Peptide 219]
- MMC99 μM in 1% BHI medium ([1]; screen 2): 6.25 µM
- MMC99 μM in 50% SWF ([1]; screen 2): 12.5 µM
- TNF-α at 4 μM peptide ([2]; screen 2): 68.5%
- TNF-α at 10 μM peptide ([2]; screen 2): 44.0%
- TNF-α at 40 μM peptide ([2]; screen 2): 7.3%

Sequence: RWCFLWRRLMRKHRRL [Peptide 240]
- MMC99 μM in 1% BHI medium ([1]; screen 2): 12.5 µM
- MMC99 μM in 50% SWF ([1]; screen 2): 25 µM
- TNF-α at 4 μM peptide ([2]; screen 2): 78.3%
- TNF-α at 10 μM peptide ([2]; screen 2): 59.9%

Sequence: RWCKLWRRLMRKVRRL [Peptide 239]
- MMC99 μM in 1% BHI medium ([1]; screen 2): 12.5 µM
- MMC99 μM in 50% SWF ([1]; screen 2): 25 µM
- TNF-α at 4 μM peptide ([2]; screen 2): 65.6%
- TNF-α at 10 μM peptide ([2]; screen 2): 56.5%

Sequence: SEAEKCFQWQRNMRKVR [Peptide 110]
- MMC99 μM in 1% BHI medium [1, 3]: >160 µM
- TNF-α at 40 μM peptide ([2]; screen 1): 102%
